{
  "source": "patent US9333210B2",
  "about": "“Medicine composition containing vitamin D and metformin” (GUANGDONG TAIHE MEDICINE SCIENCE & TECHNOLOGY CO., LTD, priority 2011, dated 2016)",
  "key": {"[1]": {"test_system": "Wistar rats with dimethyl hydrazine-induced colorectal cancer", "experiment": "Tumorigenesis and tumor inhibition rate in dimethyl hydrazine-induced colorectal cancer rats (Example 1)", "format": "in vivo", "details": "for Mean number of tumors / Number of Animals with tumor: DMH rats; for Mean number of tumors / Number of Animals with tumor / Inhibition rate(%): week 18; for Number of Animals with tumor: of 10 animals; for Inhibition rate(%): tumor number vs model control", "excerpt": "(§1) Wistar rats with dimethyl hydrazine-induced colorectal cancer were used as the model to study the chemoprevention by the combined administration of vitamin D3 and metformin hydrochloride for colorectal cancer and the effect on colorectal cancer.\n(§2) Experimental animals were randomly divided into 11 groups (each group having 10), including blank control group, model control group, low, medium and high dose groups of vitamin D3, low, medium and high dose groups of metformin, and three groups of different doses of vitamin D3 in combination with metformin. Except for the blank control group, other groups were subcutaneously injected with dimethyl hydrazine once a week respectively for 18 weeks, to induce colorectal cancer model. Dimethylhydrazine was dissolved in sodium chloride injection, and into the solution, 5% NaOH solution was added to adjust pH to 6.5-7.0, thereby obtaining a 20 mg/ml solution. The resulting solution was filtered through 0.22 μm membrane, and prepared extemporaneously.\n(§3) Vitamin D3 was prepared into 10-100 U/ml solution by using soybean oil, and intragastrically administrated, once a day. Metformin was prepare into 10-100 mg/ml solution, and administrated intragastrically, once a day. The above drugs were administrated from day 0.\n(§4) All the animals were sacrificed at the end of 18th weeks after administration. Body weights were recorded once a week during the experiment, and the administrated dose was calculated based on the body weight. The animals that died during the experiment were dissected and observed.\n(§5) 3.2.2 The large intestine was separated immediately after the animals were sacrificed, the contents of the intestine were washed away with saline, and colorectal tumors were visually observed to calculate the number of tumors. The entire colon was paved between two layers of filter paper, placed in 10% neutral formalin and fixed for 24-48 h. The fixed large intestine tissue was put into 0.2% methylene blue and stained for 10 s. The aberrant crypt foci (ACF) of the whole large intestine were immediately observed under an optical microscope, and the number of the aberrant crypt in foci was counted respectively as one, two, three and four as well as greater than four.\n(§6) 3.2.3 The data were processed by using Excel 2003 software for statistical analysis, and the obtained data were represented by mean±standard deviation (mean±SD). P<0.05 means that there is statistically significant difference between two groups."}, "[2]": {"test_system": "Wistar rats with dimethyl hydrazine-induced colorectal cancer", "experiment": "Aberrant crypt foci (ACF) count in dimethyl hydrazine-induced colorectal cancer rats (Example 1)", "format": "in vivo", "details": "for ACF AC = 1 / ACF AC = 2 / ACF AC = 3 / ACF AC ≧ 4 / The total number of ACF: DMH rats, week 18; for inhibitory effect on ACF, trend with dose: low, medium, high dose groups, end of week 18", "excerpt": "as §1, §2, §3, §4, §5, §6"}, "[3]": {"test_system": "Wistar rats with dimethyl hydrazine-induced colorectal cancer", "experiment": "Tumorigenesis and inhibition rate, drugs administrated from day 15 (Example 9)", "format": "in vivo", "details": "drugs from day 15", "description": "Example 1 was repeated, except that: The experimental animals were randomly divided into 11 groups, with 8 in each group. Except for the blank control group, other groups were subcutaneously injected of dimethylhydrazine once a week for 18 weeks to induce colorectal cancer model. Vitamin D3 was prepared into 10-100 U/ml solution by using soybean oil, and intragastrically administrated, once a day. Metformin was prepare into 10-100 mg/ml solution, and administrated orally, once a day. The above drugs were administrated from day 15 (after two weeks). During the experiments, tumorigenesis and inhibition rate were observed."}, "[4]": {"experiment": "General situation and body weight of the rats (Example 1)", "details": "DMH rats; for Weight gain: after 18 weeks; for Body weight Week 0: baseline", "excerpt": "as §2, §3, §4\n3.2.1 The animals were observed daily to record the general conditions, such as mental activity, food-taking, feces, hair, and the like."}, "[5]": {"details": "high dose group, metformin hydrochloride 360 mg/kg intragastrically once a day"}, "[6]": {"details": "low dose group, metformin hydrochloride 40 mg/kg intragastrically once a day"}, "[7]": {"details": "low, medium, high dose groups, end of week 18"}, "[8]": {"details": "medium dose group, metformin hydrochloride 120 mg/kg intragastrically once a day"}, "[9]": {"details": "high dose group, Vitamin D 300 U/kg intragastrically once a day"}, "[10]": {"details": "low dose group, Vitamin D 30 U/kg intragastrically once a day"}, "[11]": {"details": "medium dose group, Vitamin D 100 U/kg intragastrically once a day"}, "[12]": {"details": "medium dose group and high dose group, P<0.01"}},
  "note": "Counter-ions that a name gives are not always drawn.",
  "data": [
    {"smiles": "CN(C)C(=N)N=C(N)N", "note": "[metformin, metformin hydrochloride]", "values": [
      {"measurement": "Mean number of tumors", "setting": "[1]; [5]", "result": "1.6 ± 0.5"},
      {"measurement": "Mean number of tumors", "setting": "[1]; [6]", "result": "2.0 ± 0.7"},
      {"measurement": "number of tumors, trend with dose", "setting": "[1]; [7]", "result": "reduced with the increase of dose"},
      {"measurement": "Mean number of tumors", "setting": "[1]; [8]", "result": "1.8 ± 0.4"},
      {"measurement": "Number of Animals with tumor", "setting": "[1]; [5]", "result": 10},
      {"measurement": "Number of Animals with tumor", "setting": "[1]; [6]", "result": 10},
      {"measurement": "Number of Animals with tumor", "setting": "[1]; [8]", "result": 10},
      {"measurement": "Inhibition rate(%)", "setting": "[1]; [5]", "result": 42.9, "unit": "%"},
      {"measurement": "Inhibition rate(%)", "setting": "[1]; [6]", "result": 28.6, "unit": "%"},
      {"measurement": "Inhibition rate(%)", "setting": "[1]; [8]", "result": 35.7, "unit": "%"},
      {"measurement": "ACF AC = 1", "setting": "[2]; [5]", "result": "61.5 ± 8.1"},
      {"measurement": "ACF AC = 2", "setting": "[2]; [5]", "result": "13.8 ± 3.4"},
      {"measurement": "ACF AC = 3", "setting": "[2]; [5]", "result": "4.0 ± 1.2"},
      {"measurement": "ACF AC ≧ 4", "setting": "[2]; [5]", "result": "9.7 ± 3.2"},
      {"measurement": "The total number of ACF", "setting": "[2]; [5]", "result": "89.0 ± 12.7"},
      {"measurement": "ACF AC = 1", "setting": "[2]; [6]", "result": "70.4 ± 10.6"},
      {"measurement": "ACF AC = 2", "setting": "[2]; [6]", "result": "16.7 ± 3.6"},
      {"measurement": "ACF AC = 3", "setting": "[2]; [6]", "result": "6.7 ± 1.7"},
      {"measurement": "ACF AC ≧ 4", "setting": "[2]; [6]", "result": "16.5 ± 2.1"},
      {"measurement": "The total number of ACF", "setting": "[2]; [6]", "result": "110.3 ± 13.0"},
      {"measurement": "inhibitory effect on ACF, trend with dose", "setting": "[2]", "result": "same trend"},
      {"measurement": "ACF AC = 1", "setting": "[2]; [8]", "result": "57.0 ± 10.7"},
      {"measurement": "ACF AC = 2", "setting": "[2]; [8]", "result": "16.6 ± 1.8"},
      {"measurement": "ACF AC = 3", "setting": "[2]; [8]", "result": "5.4 ± 1.6"},
      {"measurement": "ACF AC ≧ 4", "setting": "[2]; [8]", "result": "14.8 ± 3.0"},
      {"measurement": "The total number of ACF", "setting": "[2]; [8]", "result": "93.8 ± 11.7"},
      {"measurement": "number of tumors, trend with dose", "setting": "[3]; end of week 18", "result": "reduced with the increase of dose"}
    ]},
    {"smiles": "C=C1CC[C@H](O)C/C1=C/C=C1\\CCC[C@]2(C)[C@@H]([C@H](C)CCCC(C)C)CC[C@@H]12", "note": "[vitamin D3, Vitamin D3]", "values": [
      {"measurement": "Weight gain", "setting": "[4]; [9]", "result": 225.7, "unit": "%"},
      {"measurement": "Weight gain", "setting": "[4]; [10]", "result": 227.7, "unit": "%"},
      {"measurement": "Weight gain", "setting": "[4]; [11]", "result": 235.7, "unit": "%"},
      {"measurement": "Body weight Week 18", "setting": "[4]; [9]", "result": "328.8 ± 23.6"},
      {"measurement": "Body weight Week 0", "setting": "[4]; [9]", "result": "101.5 ± 5.2"},
      {"measurement": "Body weight Week 18", "setting": "[4]; [10]", "result": "377.5 ± 27.5"},
      {"measurement": "Body weight Week 0", "setting": "[4]; [10]", "result": "100.3 ± 4.1"},
      {"measurement": "Body weight Week 18", "setting": "[4]; [11]", "result": "294.3 ± 22.1"},
      {"measurement": "Body weight Week 0", "setting": "[4]; [11]", "result": "102.9 ± 5.8"},
      {"measurement": "Mean number of tumors", "setting": "[1]; [9]", "result": "1.4 ± 0.8"},
      {"measurement": "Mean number of tumors", "setting": "[1]; [10]", "result": "2.3 ± 0.5"},
      {"measurement": "inhibition rate for tumor, trend with dose", "setting": "[1]; [7]", "result": "increased with the increase of dose"},
      {"measurement": "number of tumors compared with the model control group", "setting": "[1]; [12]", "result": "significantly reduced"},
      {"measurement": "Mean number of tumors", "setting": "[1]; [11]", "result": "1.7 ± 0.7"},
      {"measurement": "Number of Animals with tumor", "setting": "[1]; [9]", "result": 8},
      {"measurement": "Number of Animals with tumor", "setting": "[1]; [10]", "result": 10},
      {"measurement": "Number of Animals with tumor", "setting": "[1]; [11]", "result": 10},
      {"measurement": "Inhibition rate(%)", "setting": "[1]; [9]", "result": 50.0, "unit": "%"},
      {"measurement": "Inhibition rate(%)", "setting": "[1]; [10]", "result": 17.9, "unit": "%"},
      {"measurement": "Inhibition rate(%)", "setting": "[1]; [11]", "result": 39.3, "unit": "%"},
      {"measurement": "ACF AC = 1", "setting": "[2]; [9]", "result": "61.8 ± 11.1"},
      {"measurement": "ACF AC = 2", "setting": "[2]; [9]", "result": "14.9 ± 5.9"},
      {"measurement": "ACF AC = 3", "setting": "[2]; [9]", "result": "5.0 ± 1.6"},
      {"measurement": "ACF AC ≧ 4", "setting": "[2]; [9]", "result": "9.8 ± 2.2"},
      {"measurement": "The total number of ACF", "setting": "[2]; [9]", "result": "91.5 ± 7.2"},
      {"measurement": "ACF AC = 1", "setting": "[2]; [10]", "result": "80.5 ± 7.6"},
      {"measurement": "ACF AC = 2", "setting": "[2]; [10]", "result": "16.1 ± 5.7"},
      {"measurement": "ACF AC = 3", "setting": "[2]; [10]", "result": "9.0 ± 2.3"},
      {"measurement": "ACF AC ≧ 4", "setting": "[2]; [10]", "result": "20.0 ± 4.1"},
      {"measurement": "The total number of ACF", "setting": "[2]; [10]", "result": "125.6 ± 12.1"},
      {"measurement": "inhibitory effect on ACF, trend with dose", "setting": "[2]", "result": "increased with the increase of dose"},
      {"measurement": "ACF AC = 1", "setting": "[2]; [11]", "result": "67.9 ± 11.8"},
      {"measurement": "ACF AC = 2", "setting": "[2]; [11]", "result": "15.9 ± 5.7"},
      {"measurement": "ACF AC = 3", "setting": "[2]; [11]", "result": "4.8 ± 3.1"},
      {"measurement": "ACF AC ≧ 4", "setting": "[2]; [11]", "result": "16.1 ± 2.9"},
      {"measurement": "The total number of ACF", "setting": "[2]; [11]", "result": "104.7 ± 14.3"},
      {"measurement": "inhibition rate for tumor, trend with dose", "setting": "[3]; end of week 18", "result": "increased with the increased of dose"},
      {"measurement": "tumor number compared with the model control group", "setting": "[3]; [12]", "result": "significantly reduced"}
    ]}
  ]
}
